Source: patent US12186283B2, “Bismuth-thiol compositions and methods of use” (Microbion Corporation, priority 2018, dated 2025)
Values after ≈ are worked out from the molar mass of the structure shown. Where two headings read alike, the source gives them in different places.

What was measured:
[1] = system: Burkholderia cepacia complex; assay: Checkerboard FIC assay, BisEDT with CF agents (Example 10); assay type: cell-based, Burkholderia spp.; conditions: for MIC: agent alone, as observed during FIC testing
[2] = system: P. aeruginosa; assay: Broth microdilution MIC (Example 10)
[3] = system: Burkholderia cepacia complex; assay: Broth microdilution MIC (Example 10); conditions: initial MIC testing
[4] = system: Enterococcus spp. (E. faecalis, E. faecium); assay: Broth microdilution MIC (Example 11); assay type: cell-based; conditions: Enterococcus faecium, VRE, E. faecium MMX 485; VRE, vanA, LevR, CipR, EryR; read-out: MIC
[5] = system: beta-hemolytic streptococci (S. pyogenes, S. agalactiae); assay: Broth microdilution MIC (Example 11); assay type: cell-based, Streptococcus pyogenes, Streptococcus agalactiae; conditions: read-out: MIC
[6] = system: Candida albicans; assay: Broth microdilution MIC, yeast (Example 13); assay type: cell-based; conditions: 24 hr
[7] = system: Candida glabrata; assay: Broth microdilution MIC, yeast (Example 13); assay type: cell-based
[8] = system: Candida krusei; assay: Broth microdilution MIC, yeast (Example 13); assay type: cell-based
[9] = system: Candida auris; assay: Broth microdilution MIC, yeast (Example 13); assay type: cell-based
[10] = system: Aspergillus spp.; assay: Broth microdilution MIC/MEC, mold (Example 13); assay type: cell-based; conditions: comparators, read time not given
[11] = system: P. aeruginosa; assay: Checkerboard FIC assay, BisEDT with CF agents (Example 10); assay type: cell-based, Pseudomonas aeruginosa; conditions: for FICB: Colistin FIC in combination with BisEDT; for FICB / MICB: per checkerboard row; for MICB: Colistin MIC in combination with BisEDT; for Drug B MIC: Colistin alone (checkerboard with BisEDT)
[12] = S. agalactiae MMX 3741, ERY^R CC^R
[13] = S. agalactiae MMX 3743, ERY^R CC^R
[14] = S. agalactiae MMX 4077, ERY^R CC^R
[15] = S. agalactiae MMX 4079, ERY^R CC^R Pen^R MEM^R
[16] = S. agalactiae MMX 4086, ERY^R CC^R

C[C@H]1[C@H](NC(=O)/C(=N\OC(C)(C)C(=O)O)c2csc(N)n2)C(=O)N1S(=O)(=O)O [AZT]
MIC ([1]; B. cenocepacia isolate 0548): 64 µg/mL | MIC ([1]; B. cenocepacia isolate 0813): 32 µg/mL | MIC ([1]; B. multivorans isolate 1795): 16 µg/mL | MIC ([2]; P. aeruginosa isolate 103 (ATCC 25922), QC strain, initial MIC testing): 8 µg/mL (≈ 18.4 µM) | MIC ([2]; P. aeruginosa isolate 103 (ATCC 25922), during FIC testing, each agent tested alone for QC, one replicate): 8 µg/mL | MIC ([2]; P. aeruginosa isolate 1497 (TOB-R, AMK-R, CIP-I, AZT-R, COL-R), initial MIC testing): 32 µg/mL (≈ 73.5 µM) | MIC ([2]; P. aeruginosa isolate 1530 (TOB-R, AMK-R, CIP-R), initial MIC testing): 4 µg/mL (≈ 9.19 µM) | MIC ([2]; P. aeruginosa isolate 1553 (TOB-R, AMK-R, CIP-R), initial MIC testing): 8 µg/mL (≈ 18.4 µM) | MIC ([2]; P. aeruginosa isolate 6322 (MEM-R, TOB-R, AMK-R, CIP-R, AZT-R), initial MIC testing): 64 µg/mL (≈ 147 µM) | MIC ([2]; P. aeruginosa isolate 6977 (MEM-I, TOB-R, CIP-R, AZT-I), initial MIC testing): 16 µg/mL (≈ 36.7 µM) | MIC ([2]; P. aeruginosa isolate 7745 (MEM-R, CIP-R, AZT-R), initial MIC testing): 32 µg/mL (≈ 73.5 µM) | MIC ([2]; P. aeruginosa isolate 7754 (MEM-R, TOB-R, CIP-R, AZT-I), initial MIC testing): 16 µg/mL (≈ 36.7 µM) | MIC ([2]; P. aeruginosa isolate 7762 (MEM-I, CIP-I), initial MIC testing): 8 µg/mL (≈ 18.4 µM) | MIC ([2]; P. aeruginosa isolate 7871 (MEM-R, AZT-I), initial MIC testing): 16 µg/mL (≈ 36.7 µM) | MIC ([2]; P. aeruginosa isolate 7874, initial MIC testing): 4 µg/mL (≈ 9.19 µM) | MIC ([2]; P. aeruginosa isolate 7886 (MEM-R, CIP-R, AZT-R), initial MIC testing): 64 µg/mL (≈ 147 µM) | MIC ([2]; P. aeruginosa isolate 8797 (MEM-R, TOB-R, AMK-R, CIP-R, AZT-R, COL-R), initial MIC testing): >256 µg/mL | MIC ([2]; P. aeruginosa isolate 8798 (MEM-R, TOB-R, AMK-R, CIP-R, AZT-R, COL-R), initial MIC testing): 256 µg/mL (≈ 588 µM) | MIC ([2]; P. aeruginosa isolate 9108 (CIP-R, AZT-I), initial MIC testing): 16 µg/mL (≈ 36.7 µM) | MIC ([3]; B. cenocepacia isolate 0813 (CPI-I)): 8 µg/mL (≈ 18.4 µM) | MIC ([3]; B. cenocepacia isolate 1631): 32 µg/mL (≈ 73.5 µM) | MIC ([3]; B. cenocepacia isolate 1783): 32 µg/mL (≈ 73.5 µM) | MIC ([3]; B. cenocepacia isolate 8555): 256 µg/mL (≈ 588 µM) | MIC ([3]; B. cepacia isolate 0546): 16 µg/mL (≈ 36.7 µM) | MIC ([3]; B. cepacia isolate 0547): 16 µg/mL (≈ 36.7 µM) | MIC ([3]; B. cepacia isolate 1793): 128 µg/mL (≈ 294 µM) | MIC ([3]; B. cepacia isolate 1794): 32 µg/mL (≈ 73.5 µM) | MIC ([3]; B. cepacia isolate 9040): 32 µg/mL (≈ 73.5 µM) | MIC ([3]; B. multivorans isolate 1580 (CIP-R)): 64 µg/mL (≈ 147 µM) | MIC ([3]; B. multivorans isolate 1791): 4 µg/mL (≈ 9.19 µM) | MIC ([3]; B. multivorans isolate 1795 (MEM-I, CIP-R)): 4 µg/mL (≈ 9.19 µM) | MIC ([3]; B. multivorans isolate 5665 (CIP-I)): 4 µg/mL (≈ 9.19 µM) | MIC ([3]; B. multivorans isolate 8952 (CIP-I)): 8 µg/mL (≈ 18.4 µM)

C[C@H]1COc2c(N3CCN(C)CC3)c(F)cc3c(=O)c(C(=O)O)cn1c23 [Levofloxacin, reference compound]
MIC [4]: > 64 µg/mL | MIC [5, 12]: 0.5 µg/mL (≈ 1.38 µM) | MIC [5, 13]: 1 µg/mL (≈ 2.77 µM) | MIC [5, 14]: 0.5 µg/mL (≈ 1.38 µM) | MIC [5, 15]: 1 µg/mL (≈ 2.77 µM) | MIC [5, 16]: 0.5 µg/mL (≈ 1.38 µM)

C[C@@H](c1ncncc1F)[C@](O)(Cn1cncn1)c1ccc(F)cc1F [VORI]
MIC2 (50% inhibition) ([6]; Candida albicans ATCC 90028, Susceptible): ≤0.008 µg/mL | MIC2 (50% inhibition) ([6]; Candida albicans ATCC 204276, MICA-R): ≤0.008 µg/mL | MIC2 (50% inhibition) ([6]; Candida albicans ATCC MYA-2732, FLU-R, VORI-I): 0.5 µg/mL | MIC2 (50% inhibition) ([6]; Candida albicans MMX 7053, Susceptible): ≤0.008 µg/mL | MIC2 (50% inhibition) ([6]; Candida albicans MMX 7067, FLU-R, VORI-R): >8 µg/mL | MIC2 (50% inhibition) ([6]; Candida albicans MMX 7403, Susceptible): ≤0.008 µg/mL | MIC2 (50% inhibition) ([6]; Candida albicans MMX 7424, CASP-R, MICA-R): ≤0.008 µg/mL | MIC2 (50% inhibition) ([6]; Candida albicans MMX 7430, Susceptible): ≤0.008 µg/mL | MIC2 (50% inhibition) ([6]; Candida albicans MMX 7437, FLU-I): 0.12 µg/mL | MIC2 (50% inhibition) ([6]; Candida albicans MMX 7445, FLU-R, VORI-R): >8 µg/mL | MIC2 (50% inhibition) ([7]; Candida glabrata ATCC 90030, Susceptible): 0.12 µg/mL | MIC2 (50% inhibition) ([7]; Candida glabrata ATCC MYA-2950, Susceptible): 0.12 µg/mL | MIC2 (50% inhibition) ([7]; Candida glabrata MMX 7087, Susceptible): 0.03 µg/mL | MIC2 (50% inhibition) ([7]; Candida glabrata MMX 7093, FLU-R): 2 µg/mL | MIC2 (50% inhibition) ([7]; Candida glabrata MMX 7101, FLU-R): 2 µg/mL | MIC2 (50% inhibition) ([7]; Candida glabrata MMX 7103, CASP-R, MICA-R): 0.12 µg/mL | MIC2 (50% inhibition) ([7]; Candida glabrata MMX 7111, Susceptible): 0.06 µg/mL | MIC2 (50% inhibition) ([7]; Candida glabrata MMX 7285, CASP-R, MICA-R): 1 µg/mL | MIC2 (50% inhibition) ([7]; Candida glabrata MMX 7307, CASP-R, MICA-R, FLU-R): 4 µg/mL | MIC2 (50% inhibition) ([7]; Candida glabrata MMX 7549, Susceptible): 0.06 µg/mL | MIC2 (50% inhibition) ([8]; C. krusei ATCC 6258, MICA-I): 0.12 µg/mL | MIC2 (50% inhibition) ([8]; C. krusei ATCC 14243, Susceptible): 0.06 µg/mL | MIC2 (50% inhibition) ([8]; C. krusei ATCC 96685, Susceptible): 0.5 µg/mL | MIC2 (50% inhibition) ([8]; C. krusei MMX 7125, Susceptible): 0.25 µg/mL | MIC2 (50% inhibition) ([8]; C. krusei MMX 7128, Susceptible): 0.12 µg/mL | MIC2 (50% inhibition) ([8]; C. krusei MMX 7141, Susceptible): 0.12 µg/mL | MIC2 (50% inhibition) ([8]; C. krusei MMX 7153, MICA-R): 0.25 µg/mL | MIC2 (50% inhibition) ([8]; C. krusei MMX 7155, Susceptible): 0.25 µg/mL | MIC2 (50% inhibition) ([8]; C. krusei MMX 7563, Susceptible): 0.25 µg/mL | MIC2 (50% inhibition) ([8]; C. krusei MMX 9878, MICA-I, VORI-I): 1 µg/mL | MIC2 (50% inhibition) ([9]; C. auris MMX 9862, Susceptible): 0.03 µg/mL | MIC2 (50% inhibition) ([9]; C. auris MMX 9863, FLU-R, VORI-R): >8 µg/mL | MIC2 (50% inhibition) ([9]; C. auris MMX 9864, FLU-R, VORI-R): 2 µg/mL | MIC2 (50% inhibition) ([9]; C. auris MMX 9865, FLU-R, VORI-R): 8 µg/mL | MIC2 (50% inhibition) ([9]; C. auris MMX 9866, FLU-R, VORI-R): 8 µg/mL | MIC2 (50% inhibition) ([9]; C. auris MMX 9867, FLU-R, VORI-R): 8 µg/mL | MIC2 (50% inhibition) ([9]; C. auris MMX 9868, FLU-R, VORI-R): >8 µg/mL | MIC2 (50% inhibition) ([9]; C. auris MMX 9869, FLU-R, VORI-R): 2 µg/mL | MIC2 (50% inhibition) ([9]; C. auris MMX 9870, FLU-R, VORI-R): 4 µg/mL | MIC2 (50% inhibition) ([9]; C. auris MMX 9871, Susceptible): 1 µg/mL | MIC0 (complete inhibition) ([10]; A. flavus ATCC 22546): 1 µg/mL | MIC0 (complete inhibition) ([10]; A. flavus ATCC 204304): 2 µg/mL | MIC0 (complete inhibition) ([10]; A. flavus MMX 7935): 0.5 µg/mL | MIC0 (complete inhibition) ([10]; A. fumigatus ATCC 204305): 0.5 µg/mL | MIC0 (complete inhibition) ([10]; A. fumigatus ATCC MYA-3626): 0.5 µg/mL | MIC0 (complete inhibition) ([10]; A. fumigatus MMX 5934): 0.25 µg/mL | MIC0 (complete inhibition) ([10]; A. fumigatus MMX 5938): 0.25 µg/mL | MIC0 (complete inhibition) ([10]; A. fumigatus MMX 5939): 2 µg/mL | MIC0 (complete inhibition) ([10]; A. niger ATCC 29508): 0.5 µg/mL | MIC0 (complete inhibition) ([10]; A. terreus MMX 8229): 0.25 µg/mL

CCC[C@@H]1C[C@@H](C(=O)N[C@@H]([C@H]2O[C@H](SC)[C@H](O)[C@@H](O)[C@H]2O)[C@H](C)Cl)N(C)C1 [clindamycin, reference compound]
MIC [4]: > 32 µg/mL | MIC [5, 12]: > 8 µg/mL | MIC [5, 13]: > 8 µg/mL | MIC [5, 14]: > 8 µg/mL | MIC [5, 15]: > 8 µg/mL | MIC [5, 16]: > 8 µg/mL

Colistin
FICB ([11]; P. aeruginosa 6322): 1 | MICB ([11]; P. aeruginosa 6322): 0.5 µg/mL | Drug B MIC ([11]; P. aeruginosa 6322): 0.5 µg/mL | FICB ([11]; P. aeruginosa 6977): 1 | MICB ([11]; P. aeruginosa 6977): 1 µg/mL | Drug B MIC ([11]; P. aeruginosa 6977): 1 µg/mL | FICB ([11]; P. aeruginosa 7745): 1 | MICB ([11]; P. aeruginosa 7745): 0.5 µg/mL | Drug B MIC ([11]; P. aeruginosa 7745): 0.5 µg/mL | Drug B MIC ([11]; P. aeruginosa 8798): >256 µg/mL | Drug B MIC ([11]; P. aeruginosa 9108): 0.5 µg/mL | FICB ([1]; B. multivorans 1795, FIC of Colistin in combination with BisEDT): 1
